Each structure is given as a SMILES string.

In PubChem BioAssay AID652053 (Broad Institute, 2013) one finds AC40 data, which are given here for 64 compounds.

The test has as its system Huh7 psiCHECK-miR122 Renilla luciferase reporter, 48 h. As to the kind of experiment: miR-122 inhibitors in Huh7 reporter cells, dose response, cell-based, Huh7 psiCHECK-miR122, Renilla luciferase, cherry-pick (AID 652053).
Turning to `CC(C)C#Cc1ccc2c(c1)O[C@H](CN(C)C(=O)Nc1ccccc1)[C@@H](C)CN([C@@H](C)CO)S2(=O)=O`, the AC40 is 2.08 µM. On to `COc1ccc(S(=O)(=O)N(CCc2ccccc2)CC(=O)N2CCOCC2)cc1`, for which the AC40 is 17.1 µM. On to `C[C@@H]1CN([C@@H](C)CO)S(=O)(=O)c2ccc(C#CCN(C)C)cc2O[C@@H]1CN(C)Cc1ccc2c(c1)OCO2`, for which the AC40 was 8.29 µM. Consider `O=C1c2ccccc2C2=Nc3ccccc3SC(c3ccccc3F)C12` (centres undefined), for which the AC40 is 21 µM. As for `O=C(C1CCCCC1)N1[C@H](CO)[C@@H]2c3ccccc3N(S(=O)(=O)c3ccccc3)C[C@@H]21`, the AC40 is 3.09 µM. As to `Cc1ccc(C)c(S(=O)(=O)Nc2ccc3scnc3c2)c1`, the AC40 was 0.899 µM. In the case of `CC(C)CCC(CC(C)O)C(=O)NNC(=S)Nc1ccccc1` (centres undefined), the AC40 is 9.74 µM.

Turning to `Cc1cc(C)c(-n2nnnc2SCC(=O)c2cccs2)c(C)c1`, the AC40 is 14.9 µM. `C[C@]12CC[C@H](O)C[C@H]1CC[C@@H]1[C@@H]2CC[C@]2(C)[C@@H](C3=CC(=O)OC3)CC[C@]12O`: the AC40 was 5.74 µM. As for `C[C@@H]1CN([C@@H](C)CO)C(=O)c2cccc(NC(=O)Nc3ccccc3)c2O[C@H]1CN(C)Cc1ccc(C(F)(F)F)cc1`, the AC40 is 2.49 µM. With `CC(=O)Nc1ccc(S(=O)(=O)Nc2cccc(-c3csc(C)n3)c2)cc1`, the AC40 is 8.21 µM. On to `O=S1(=O)c2ccc(Br)cc2N2CCC[C@H]2CN1Cc1ccccc1`, for which the AC40 was 34.9 µM. Consider `CCOc1cc(C)c(S(=O)(=O)Nc2ccc3cn[nH]c3c2)cc1C`, for which the AC40 is 1.24 µM. As for `C[C@H](CO)N1C[C@H](C)[C@H](CN(C)CC2CCCCC2)Oc2c(NC(=O)C3CCOCC3)cccc2C1=O`, the AC40 was 1.95 µM. For the compound `Cc1ccc(S(=O)(=O)NC2CCCCCC2)cc1`, the AC40 is 2.92 µM.

In the case of `Cc1ccc(NS(=O)(=O)c2ccc3c(c2)n(C)c(=O)n3C)cc1C`, the AC40 was 3.8 µM.

Turning to `Cc1ccc(NS(=O)(=O)c2cc(C(=O)NCc3ccccn3)ccc2Cl)cc1C`, the AC40 was 2.91 µM. Consider `CCOC(=O)c1cc(S(=O)(=O)NCCc2ccccc2)cn1C`, for which the AC40 was 3.84 µM. The value for `C[C@H](CO)N1C[C@H](C)[C@@H](CN(C)Cc2ccc(C(F)(F)F)cc2)Oc2c(NC(=O)C3CCCCC3)cccc2C1=O` was 0.596 µM; that for `COc1ccccc1NS(=O)(=O)c1cc(C(=O)NCc2ccco2)ccc1C` was 13.5 µM; that for `COc1ccc(OC)c(C2C3=C(COC3=O)Nc3cc4c(cc32)OCO4)c1` (centres undefined) was 17.7 µM. With `COC(=O)c1cc(S(=O)(=O)Nc2cc(OC)cc(OC)c2)cn1C`, the AC40 was 2.37 µM. The value for `COc1cccc(C(=O)N2C[C@H]3[C@@H](c4ccccc42)[C@@H](CO)N3C(=O)c2ccc(F)cc2)c1` was 2.16 µM. For the compound `C[C@H](CO)N1C[C@H](C)[C@@H](CN(C)Cc2ccc3c(c2)OCO3)Oc2c(NC(=O)Nc3ccccc3)cccc2C1=O`, the AC40 is 8.95 µM. With `CCN1C(=O)c2cccc3c(S(=O)(=O)N(C(=O)c4cccnc4)c4ccc(OC)cc4)ccc1c23`, the AC40 was 1.21 µM. Take `CCCCNS(=O)(=O)c1ccc2nc(SCC(=O)Nc3sccc3C#N)[nH]c2c1`: the AC40 was 0.553 µM. Consider `Cc1ccc(C(=O)NCCSC2CCCCC2)cc1S(=O)(=O)Nc1ccccc1`, for which the AC40 is 6.44 µM. With `Cc1ccc(S(=O)(=O)N(C)C[C@H]2Oc3ccc(NC(=O)CCC(F)(F)F)cc3C(=O)N([C@@H](C)CO)C[C@H]2C)cc1`, the AC40 was 12.1 µM. Turning to `COc1ccc(OC)c(S(=O)(=O)NCc2ccccc2)c1`, the AC40 was 0.781 µM. In the case of `Cc1ccnc(NCc2cc(C)ccc2O)c1`, the AC40 was 29.8 µM. In the case of `COc1ccccc1NS(=O)(=O)c1cc(Cl)ccc1OC`, the AC40 was 15.9 µM. Take `COc1cccc(C(O)c2ncc(-c3cccc(F)c3)[nH]2)c1` (centres undefined): the AC40 is 17.3 µM. The value for `CC1CCCN(C(=O)Cn2nnc(-c3cccnc3)n2)C1` (centres undefined) was 14.4 µM.

Consider `C[C@@H]1CN([C@@H](C)CO)C(=O)Cc2cc(N(C)C)ccc2O[C@@H]1CN(C)Cc1ccc(C(=O)Nc2ccccc2N)cc1`, for which the AC40 is 10 µM.

As for `Cc1cc(S(=O)(=O)Nc2cccc(O)c2)c(C)s1`, the AC40 was 31 µM. The value for `COc1cc(C)c(Cl)c(C)c1S(=O)(=O)NCc1cccnc1` was 2.3 µM; that for `Cc1ccc(C)c(S(=O)(=O)Nc2ccc(O)cc2)c1` was 8.22 µM; that for `C[C@H](CO)N1C[C@H](C)[C@@H](CN(C)Cc2ccc(Oc3ccccc3)cc2)Oc2c(NC(=O)c3ccncc3)cccc2C1=O` was 2.42 µM. The value for `COc1ccc(NS(=O)(=O)c2cc(NC(=O)c3sccc3C)ccc2N2CCOCC2)cc1` was less than 0.26 µM; that for `COc1ccc(C)cc1S(=O)(=O)Nc1cc2c3c(c1)CCC(=O)N3CCC2` was 1.86 µM; that for `C[C@H]1CN([C@@H](C)CO)C(=O)c2cccc(NC(=O)c3ccncc3)c2O[C@@H]1CN(C)CC1CCCCC1` was 7.44 µM. As for `CC(=Nc1ccccc1)C1=C(O)C(Cc2cccc(F)c2)NC1=O` (centres undefined), the AC40 is 3.86 µM. For `CC(=O)N1c2c(cc(Br)cc2S(=O)(=O)NCc2ccccc2)CC1C` (centres undefined) the value was 5.96 µM. The value for `Cc1ccc(NS(=O)(=O)c2cc3c4c(c2)CC(=O)N4CCC3)cc1C` was 2.61 µM. For the compound `Cc1cc(C)c(C)c(S(=O)(=O)NC2CCCCC2)c1C`, the AC40 is 0.607 µM. Turning to `COc1cccc(CNS(=O)(=O)c2cc(-c3cc(C)no3)ccc2C(C)C)c1`, the AC40 is 5.07 µM. As for `CCOC(=O)c1cc(S(=O)(=O)NC2CCCCC2)cn1C`, the AC40 is 5.77 µM. In the case of `Cc1ccc(S(=O)(=O)Nc2ccc3c(c2)CC(=O)N([C@@H](C)CO)C[C@@H](C)[C@H](CN(C)Cc2ccc(C(=O)Nc4ccccc4N)cc2)O3)cc1`, the AC40 was 32.4 µM.

For `Cc1cc(C)cc(NS(=O)(=O)c2ccc3c(c2)C(C)(C)C(=O)N3C)c1`, the AC40 is 1.21 µM. Regarding `COCCNC(=O)c1ccc(C)c(S(=O)(=O)Nc2ccc(C)cc2)c1`, the AC40 is 6.38 µM.

`CC(C)Oc1ccc(C(=O)Nc2ccc(Cl)c(S(=O)(=O)Nc3ccc(Cl)cc3)c2)cc1`: the AC40 was 0.559 µM. Consider `N#Cc1c(NC(=O)c2ccccc2)sc2c1CCC2`, for which the AC40 was 29 µM. As to `C[C@@H]1CN([C@H](C)CO)C(=O)c2cccc(NC(=O)NC3CCCCC3)c2O[C@H]1CN(C)Cc1ccc(Cl)c(Cl)c1`, the AC40 was 0.891 µM. As for `COc1ccc(S(=O)(=O)NCCN2CCOCC2)c2ccccc12`, the AC40 was 0.789 µM.

Regarding `COc1ccc(S(=O)(=O)NCCc2c(C)nn(C)c2Oc2ccccc2)cc1`, the AC40 was 4.82 µM. As for `COc1ccc(C2C(Oc3ccccc3)C(=O)N2c2cc(C)ccc2C)cc1OC` (centres undefined), the AC40 is 23.1 µM. For `COc1ccc(Cl)cc1S(=O)(=O)NCc1cccnc1` the value was 14.5 µM; for `Cc1ccc([N+](=O)[O-])cc1N(CC(=O)Nc1ccc(S(=O)(=O)Nc2cccc(C(F)(F)F)c2)cc1)S(C)(=O)=O`, 14 µM; for `O=C(Nc1ccc(S(=O)(=O)NC2CCCCC2)cc1)c1ccc(Br)o1`, 1.66 µM. With `COc1ccc(C)cc1S(=O)(=O)Nc1ccc(F)cc1`, the AC40 is 1.04 µM. As to `COc1ccc(NP(=O)(Oc2ccc(Cl)cc2)Oc2ccc(Cl)cc2)cc1OC`, the AC40 was 7.43 µM.

Regarding `Cc1ccc(NS(=O)(=O)c2cc(C(=O)NCCSC3CCCCC3)ccc2C)cc1`, the AC40 was 4.68 µM.

For the compound `CCN(CC)S(=O)(=O)c1cc(NS(=O)(=O)c2cccc(Cl)c2)ccc1C`, the AC40 is 8.63 µM. Regarding `COc1ccc(OC)c(S(=O)(=O)Nc2cccc(-c3ccc4nncn4n3)c2)c1`, the AC40 is 2.4 µM.
